Data reported in patent publication US20080004272A1, “Compositions and methods for modulating gated ion channels” (PainCeptor Pharma Corporation, priority 2006, published 2008).
Like-named read-outs stand apart in the source and are kept apart here.

Experiments:
formalin-induced pain = assay: Formalin test, model of acute tonic pain; type: in vivo; details: rat; for Effect on pain intensity (flinching or licking behaviors): s.c. 30 min prior to formalin injection; for ED50: sc, s.c. 30 min prior to formalin, licking and biting episodes in phase IIa, read-out: ED50, effective dose where the pain score is reduced by half
Description: Male Sprague-Dawley rats are housed together in groups of three animals under standard conditions with unrestricted access to food and water. All experiments are conducted according to the ethical guidelines for investigations of experimental pain in conscious animals (Zimmerman, 1983)
Assessment of formalin-induced flinching behavior in normal, uninjured rats (body weight 150-180 g) is made with the use of an Automated Nociception Analyser (University of California, San Diego, USA). Briefly, this involves placing a small C-shaped metal band (10 mm wide×27 mm long) on the hindpaw of the rat to be tested. The rats (four rats are included in each testing session) are then placed in a cylindrical plexiglass observation chamber (diameter 30.5 cm and height 15 cm) for 20 min for adaptation purposes prior to being administered drug or vehicle according to the experimental paradigm being followed. After adaptation, individual rats are then gently restrained and formalin (5% in saline, 50 μl, s.c.) is injected into the plantar surface of the hindpaw using a 27G needle. Rats are then returned to their separate observation chambers, each of which are in turn situated upon an enclosed detection device consisting of two electromagnetic coils designed to produce an electromagnetic field in which movement of the metal band could be detected. […] A sampling interval of 1 min is used and on the basis of the resulting response patterns 5 phases of nociceptive behaviour are identified and scored: first phase (P1; 0-5 min), interphase (Int; 6-15 min), second phase (P2; […]), phase 2A (P2A; 16-40 min) and phase 2B (P2B; 41-60 min).
Nociceptive behavior is also determined manually every 5 min by measuring the amount of time spent in each of four behavioral categories: 0, treatment of the injected hindpaw is indistinguishable from that of the contralateral paw; 1, the injected paw has little or no weight placed on it; 2, the injected paw is elevated and is not in contact with any surface; 3, the injected paw is licked, bitten, or shaken. A weighted nociceptive score, ranging from 0 to 3 is calculated by multiplying the time spent in each category by the category weight, summing these products, and dividing by the total time for each 5 min block of time. […] On the basis of the resulting response patterns, […] of nociceptive behavior are identified and scored: first phase (P1; 0-5 min), interphase (Int; 6-15 min), second phase (P2; […]), phase 2A (P2A; 16-40 min) and phase 2B (P2B; 41-60 min).
Statistical analysis is performed using the Prism™ 4.01 software package (GraphPad, San Diego, Calif., USA). The difference in response levels between treatment groups and control vehicle group is analyzed using an ANOVA followed by Bonferroni's method for post-hoc pair-wise comparisons. […]

ASIC1a = biological target: T1, ASIC1a (Homo sapiens, UniProt P78348); assay: Calcium imaging of MES-induced calcium response (FLIPR); type: cell-based; design: host or cells: HEK293
T1 sequence (P78348 1-528): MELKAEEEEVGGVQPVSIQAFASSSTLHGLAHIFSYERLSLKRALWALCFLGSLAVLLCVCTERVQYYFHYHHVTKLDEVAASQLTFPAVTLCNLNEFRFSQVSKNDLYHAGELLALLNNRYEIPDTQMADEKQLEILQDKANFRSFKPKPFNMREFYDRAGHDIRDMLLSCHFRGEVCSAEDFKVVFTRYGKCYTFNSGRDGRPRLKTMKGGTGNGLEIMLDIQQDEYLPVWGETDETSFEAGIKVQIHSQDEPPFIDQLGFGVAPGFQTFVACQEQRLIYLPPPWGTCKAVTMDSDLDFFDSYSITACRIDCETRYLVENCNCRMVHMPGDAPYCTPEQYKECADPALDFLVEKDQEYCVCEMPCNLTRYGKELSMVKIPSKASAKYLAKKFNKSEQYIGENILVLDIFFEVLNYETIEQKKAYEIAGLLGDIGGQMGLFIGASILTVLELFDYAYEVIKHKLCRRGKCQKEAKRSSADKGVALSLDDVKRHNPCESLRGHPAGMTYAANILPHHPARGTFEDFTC

Structure (SMILES)	Effect on pain intensity (flinching or licking behaviors) (formalin-induced pain)	ED50 (formalin-induced pain)	IC50 (ASIC1a)	IC50 (ASIC1a; ASIC1a expressing HEK293 cells, MES-induced calcium response, read-out: IC50 (FLIPR))
CN1CCc2c(-c3ccccc3)cc(C#N)c(N)c2C1 [Compound 203, 8-Amino-2-methyl-5-phenyl-1,2,3,4-tetrahydro-isoquinoline-7-carbonitrile]	dose-dependent reduction of the pain intensity	6 mg/kg	< 10 µM	–
COc1ccc(F)cc1-c1cc(C#N)c(N)c2c1CCN(C)C2 [Compound 206, 8-Amino-5-(5-fluoro-2-methoxy-phenyl)-2-methyl-1,2,3,4-tetrahydro-isoquinoline-7-carbonitrile]	dose-dependent reduction of the pain intensity	50 mg/kg	–	20 to 40 µM
